These results are taken from publication PMC3129627 (Organic letters, 2011).

In test [1] the target is acetyl cholinesterase (AChE) from the brown plant hopper. As to conditions: natural product; cited from earlier work.
For test [2], the target named is human AChE (Homo sapiens, UniProt P22303). The experiment in a line: Inhibition of human AChE, modified Ellman assay. In kind it is biochemical. Conditions: racemic (±) synthetic compounds. (Ellman's reagent forms a yellow product with free thiols.)
Sequence of human AChE (P22303 32-614): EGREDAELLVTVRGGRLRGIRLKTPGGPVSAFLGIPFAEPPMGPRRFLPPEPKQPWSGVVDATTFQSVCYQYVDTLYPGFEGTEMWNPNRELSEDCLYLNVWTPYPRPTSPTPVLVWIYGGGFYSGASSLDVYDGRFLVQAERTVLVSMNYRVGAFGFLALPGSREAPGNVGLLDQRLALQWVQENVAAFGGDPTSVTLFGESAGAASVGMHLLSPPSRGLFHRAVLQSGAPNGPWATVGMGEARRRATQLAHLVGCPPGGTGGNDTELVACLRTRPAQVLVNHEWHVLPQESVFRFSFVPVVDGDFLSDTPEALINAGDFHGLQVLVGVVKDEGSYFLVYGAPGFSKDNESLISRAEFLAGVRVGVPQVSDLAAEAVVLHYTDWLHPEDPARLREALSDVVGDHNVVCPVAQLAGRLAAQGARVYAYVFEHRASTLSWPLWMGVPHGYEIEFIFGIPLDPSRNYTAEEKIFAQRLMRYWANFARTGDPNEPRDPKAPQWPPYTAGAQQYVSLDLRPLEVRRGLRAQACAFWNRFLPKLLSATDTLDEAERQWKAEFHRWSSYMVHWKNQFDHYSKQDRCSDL
The target in test [3] is acetyl cholinesterase (AChE) from the housefly (CSMA strain). Conditions: natural product; cited from earlier work.

SMILES strings stand for the structures.

As to `CO[P@]1(=O)OC[C@H]2COC(=O)C2=C(C)O1` [compound 1, Cyclophostin], the values for the IC50 in test [1], in test [2] and in test [3] were 0.76 nM, approximately 40 nM and 0.76 nM, respectively.
